Data published in US4835185A, “Immunomodulator for improving commercial performance of domestic animals” (Iowa State University Research Foundation, Inc., priority 1987, dated 1989).

Assay: Feedlot steers: performance and carcass
Format: in vivo, steers (cattle)
Description: Seventy-two medium-frame steers, with an average weight of 578 lbs., were allotted to 12 pens of 6 animals each. A common basal diet was fed ad libitum to all cattle. This consisted of 48.9% cracked corn, 24.4% ground corn cobs, 17.8% expeller Soybean meal, 7.0% molasses (liquid), 1.3% limestone, 0.25% dicalcium phosphate, 2% salt, 0.02% trace mineral premix, and 0.1% vitamin A premix for the first 58 days of the experiment, and was changed to 54.3% cracked corn and 12.8% expeller soybean meal for the remaining 103 days of the experiment. Three pens were assigned to each treatment. The treatments consisted of four levels of Ca-KIC in a pelleted supplement: 0%, 0.02%, 0.07%, and 0.20% of the basal diet (0.05% control pellets, 0.04% KIC pellets, 0.14% KIC pellets, and 0.40% KIC pellets). The pellets were preweighted and top-dressed on the basal diet twice daily. After 58 days, the cattle on the 0.20% KIC were removed from the experiment. The cattle were not implanted with a growth promotant nor were ionophores included in the diet. The cattle were placed in the feedlot and fed a growing ration for 5 weeks prior to the start of the experiment. The cattle were weighed on 2 consecutive days at the beginning and end of the experiment, and every 14 days during the trial. The cattle were sold through a commercial beef processing plant when they were approaised by visual examination to grade Choice. Loin eye area and fat thickness over the loin were measured on each carcass. Quality and yield grades, and percent kidney, heart, and lepvic (KHP) fat were estimated by the federal graders.
Therefore, an attempt was made to protect KIC from ruminal degradation. KIC pellets, resistant to rumen degradation, were made by mixing zein, ethanol, KIC, limestone, bentonite and water in a ratio of 8.3:7.4:5.2:3:2:1. This mixture was extruded through a die of 15 mm directly into a vat of liquid nitrogen. The shattered pellets were spread out and allowed to air-dry for two days. The dried pellets were coated with zein (2% w/w) by spraying with a 30% zein solution made in 80% ethanol. The pellets again were air-dried. Control pellets were made similar to the KIC pellets except that the mixture was zein, limestone, ethanol, bentonite and water in a ratio of 12:12:7.5:2.7:1. When KIC pellets were placed in the rumen (nylon bag technique), 45% of the KIC added was present in the bags after 36 hr of rumen digestion.
KIC was obtained from SOBAC, Paris, France. Zein was purchased from Freeman Industries, Tuckahoe, N.Y. Each experiment was statistically analyzed by analysis of variance with three pens per treatment.

## CC(C)CC(=O)C(=O)O [KIC, alpha-ketoisocaproate]
161-day trial, 0.02% KIC, NS
  Feed conversion improvement: 8%
161-day trial, 0.02% KIC, p<0.01
  daily gain increase: 14%
161-day trial, 0.07% KIC, (NX)
  daily gain increase: 7%
161-day trial, 0.07% KIC, NS
  Feed conversion improvement: 6%
58 days, 0.07% dietary KIC (0%: 2.80)
  Daily gain: 3.12 lb.
58 days, 0.07% dietary KIC (0%: 5.7)
  Feed/Gain: 5.2
58 days, 0.07% dietary KIC (0%: 16.0)
  Daily intake: 16.3 lb DM/day
58 days, 0.07% dietary KIC (0%: 756)
  Ending wt.: 770 lb.
58 days, 0.20% dietary KIC (0%: 2.80)
  Daily gain: 3.19 lb.
58 days, 0.20% dietary KIC (0%: 5.7)
  Feed/Gain: 5.2
58 days, 0.20% dietary KIC (0%: 16.0)
  Daily intake: 16.3 lb DM/day
58 days, 0.20% dietary KIC (0%: 756)
  Ending wt.: 779 lb.
58 days, % dietary KIC printed 0.2 (0%: 2.80), * p<.1
  Daily gain: 3.36 lb.
58 days, % dietary KIC printed 0.2 (0%: 5.7), ** p<.05
  Feed/Gain: 5.0
58 days, % dietary KIC printed 0.2 (0%: 16.0)
  Daily intake: 16.8 lb DM/day
58 days, % dietary KIC printed 0.2 (0%: 756)
  Ending wt.: 786 lb.
161 days, 0.02% dietary KIC (0%: 2.66), *** p<.01
  Daily gain: 3.03 lb.
161 days, 0.02% dietary KIC (0%: 8.0)
  Feed/Gain: 7.4
161 days, 0.02% dietary KIC (0%: 21.2)
  Daily intake: 22.6 lb DM/day
161 days, 0.02% dietary KIC (0%: 1016)
  Ending wt.: 1068 lb.
161 days, 0.07% dietary KIC (0%: 2.66)
  Daily gain: 2.85 lb.
161 days, 0.07% dietary KIC (0%: 8.0)
  Feed/Gain: 7.5
161 days, 0.07% dietary KIC (0%: 21.2)
  Daily intake: 21.6 lb DM/day
161 days, 0.07% dietary KIC (0%: 1016)
  Ending wt.: 1035 lb.
First 58 days, 0.02% KIC, p<0.05
  Feed conversion improvement: 13%
First 58 days, 0.02% KIC, p<0.07
  daily gain increase: 20%
First 58 days, 0.07% KIC, NS
  daily gain increase: 11%
First 58 days, 0.07% KIC, p<0.17
  Feed conversion improvement: 9%
First 58 days, 0.20% KIC, p<0.11
  Feed conversion improvement: 10%
First 58 days, 0.20% KIC, p<0.18
  daily gain increase: 14%
long-term trial, summary
  Feed conversion improvement: up to 8%
  daily gain increase: up to 14%
